For one test, the system named is WT organoids. As to the kind of experiment: Wnt inhibitor treatment of WT control organoids. Conditions: for bud formation: controls. It counts as cell-based, mouse. An excerpt: (§1) To better define the role of Hmga1 in regulating Wnt signaling, we cultured Hmga1 organoids in the absence of the Wnt receptor agonist, R-spondin 1 (R-spo1), which is essential for organoid formation in this culture system. R-spo1 is secreted by intestinal stromal cells and binds to the Lgr5 receptor to activate Wnt signaling. The inventors discovered a dramatic difference in the response of Hmga1 organoids to the absence of R-spo1 as compared to the WT controls: Hmga1 organoids continued to survive and proliferate after 2 weeks, while the WT organoids lost their 3D structural organization and ultimately died by day 5 (FIG. 9). […] To further test the link between Hmga1 and Wnt, we treated organoids with the Wnt inhibitors, C59 and IWP-2, both of which block Wnt-mediated transcription and cell proliferation by inhibiting porcupine (PORCN), a protein required for Wnt palmitoylation, secretion, and biological activity. […] The blunted response of Hmga1 organoids to Wnt inhibition further highlights the ability of Hmga1 to amplify Wnt signaling to maintain and support ISCs.
Organoid culture and replating assay. Mouse organoids were established and maintained from isolated crypts of the proximal small intestine as described previously^1-7. The basic culture medium (advanced Dulbecco's modified Eagle's medium/F12 supplemented with penicillin/streptomycin, 10 mmol/l HEPES, 13 Glutamax, 13 B27 [all from Life Technologies], and 1 mmol/l N-acetylcysteine [Sigma]) was supplemented with 50 ng/ml murine recombinant EGF (Peprotech), R-spondin 1 (1 μg/ml), and Noggin (10 ng/ml). Wnt inhibitors C59 and IWP-2 are commercially available (Abcam). Conditioned media was produced using HEK293T cells stably transfected with HA-mouse Rspo1-Fc (a gift from Calvin Kuo, Stanford University). Advanced DMEM/F12 supplemented with penicillin/streptomycin, 10 mmol/1 HEPES, and 13 Glutamax was conditioned for 1 week. For the replating assay, an equal number of organoids from each model were mechanically dispersed with a 10 mL pipet after 3-5 days in culture and replated using the conditions described above.

The next test relates to Hmga1 organoids. The test is described as follows: Wnt inhibitor treatment of Hmga1 organoids. In kind it is cell-based, mouse.
Excerpt: as §1
Organoid culture and replating assay. Mouse organoids were established and maintained from isolated crypts of the proximal small intestine as described previously^1-7. […]

With `Cc1cc(-c2ccc(CC(=O)Nc3ccc(-c4cccnc4)cc3)cc2)ccn1` [C59], the organoid proliferation result in the test on WT organoids (WT controls, exposure to as little as 0.5 μM (FIG. 4f)) was “failed to proliferate”. In the test on Hmga1 organoids (up to 2μM of C59 (FIG. 4f)), the organoid survival entry is “able to survive”.

Consider `Cc1ccc2nc(NC(=O)CSc3nc4c(c(=O)n3-c3ccccc3)SCC4)sc2c1` [IWP-2], for which the bud formation result with WT organoids (0.5 μM (FIG. 4f)) was “few buds”; in the test with WT organoids (1 μM IWP-2 (FIG. 4f)), “no buds”. The “organoid survival and bud formation” value in the test on Hmga1 organoids (1 μM of IWP-2 (FIG. 4f)) is “survive and form buds”.

Values taken from patent US20190076482A1, “ENHANCED ORGANOID FORMATION AND INTESTINAL STEM CELL RENEWAL” (THE JOHNS HOPKINS UNIVERSITY, priority 2016, published 2019).
